Results from ChEMBL document CHEMBL1201862, “PubChem BioAssay data set” (2004).
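Assay format: 96-well plates, 48-hour exposure. The concentration for 50% growth inhibition is given as GI50.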 The source made the active and inactive calls. Rule as the data show it: active = GI50 up to about 1.1 µM and inactive = higher.

Experiments:
Test in all cases: inhibition of tumour cell growth, NCI panel, 48 h
DLD-1 = system: DLD-1
NCI-H23 = system: NCI-H23
786-0 = system: 786-0
HT-29 = system: HT-29
OVCAR-3 = system: OVCAR-3
SNB-19 = system: SNB-19
NCI-H460 = system: NCI-H460
XF498 = system: XF498
UO-31 = system: UO-31
A549 = system: A549
SN12C = system: SN12C
M19-MEL = system: M19-MEL
LXFL 529 = system: LXFL 529
ACHN = system: ACHN
SF-539 = system: SF-539
UACC-62 = system: UACC-62
SR = system: SR
U-251 = system: U-251
SNB-75 = system: SNB-75
NCI-H522 = system: NCI-H522
SK-MEL-5 = system: SK-MEL-5
DMS-114 = system: DMS-114
HCC 2998 = system: HCC 2998
RXF 631 = system: RXF 631
OVCAR-4 = system: OVCAR-4
HCT-15 = system: HCT-15
SNB-78 = system: SNB-78
HL-60 = system: HL-60
HCT-116 = system: HCT-116
SK-MEL-28 = system: SK-MEL-28
SF-295 = system: SF-295
RXF 393 = system: RXF 393
OVCAR-5 = system: OVCAR-5
K562 = system: K562
KM-20L2 = system: KM-20L2
NCI-H226 = system: NCI-H226
KM12 = system: KM12
OVCAR-8 = system: OVCAR-8
TK-10 = system: TK-10
COLO 205 = system: COLO 205
SF-268 = system: SF-268
MOLT-4 = system: MOLT-4
HOP-62 = system: HOP-62
SW-620 = system: SW-620
IGROV-1 = system: IGROV-1
SK-MEL-2 = system: SK-MEL-2
LOX IMVI = system: LOX IMVI
CCRF-CEM = system: CCRF-CEM
M14 = system: M14
EKVX = system: EKVX
SK-OV-3 = system: SK-OV-3
HOP-18 = system: HOP-18
A498 = system: A498
UACC-257 = system: UACC-257
CAKI-1 = system: CAKI-1
Malme-3M = system: Malme-3M
RPMI-8226 = system: RPMI-8226
DMS-273 = system: DMS-273
HOP-92 = system: HOP-92

Measured: GI50

Cc1cc(NS(=O)(=O)c2ccc(Nc3c4ccccc4nc4c(C(=O)NCCN(C)C)ccc(Cl)c34)cc2)no1
active: SR 0.37 µM | NCI-H522 0.54 µM | DMS-114 0.867 µM | RXF 631 0.851 µM | OVCAR-8 1.12 µM | MOLT-4 0.28 µM
5.14 µM: HCT-15
inactive: DLD-1 3.94 µM | NCI-H23 3.05 µM | 786-0 4.41 µM | HT-29 2.86 µM | OVCAR-3 11.7 µM | SNB-19 2.67 µM | NCI-H460 1.36 µM | XF498 13.8 µM | UO-31 3.23 µM | A549 3.66 µM | SN12C 3.88 µM | M19-MEL 3.39 µM | LXFL 529 4.67 µM | ACHN 2.43 µM | SF-539 3.14 µM | UACC-62 2.35 µM | U-251 2.42 µM | SNB-75 2.76 µM | SK-MEL-5 2 µM | HCC 2998 3.21 µM | OVCAR-4 4.09 µM | SNB-78 10.7 µM | HL-60 1.14 µM | HCT-116 3.3 µM | SK-MEL-28 4.41 µM | SF-295 3.8 µM | RXF 393 7.6 µM | OVCAR-5 15.1 µM | K562 2.99 µM | KM-20L2 11 µM | NCI-H226 1.85 µM | KM12 4.91 µM | TK-10 13.9 µM | COLO 205 2.45 µM | SF-268 2.15 µM | HOP-62 4.57 µM | SW-620 1.92 µM | IGROV-1 3.56 µM | SK-MEL-2 6.1 µM | LOX IMVI 1.48 µM | CCRF-CEM 1.28 µM | M14 5.25 µM | EKVX 8.34 µM

CCN(CC)c1c(C(=O)/C=C/c2ccc(Cl)cc2)c(-c2ccccc2)nn(C)c1=O
1.69 µM: HCT-15
inactive: DLD-1 1.73 µM | NCI-H23 1.68 µM | 786-0 1.85 µM | HT-29 1.77 µM | OVCAR-3 2.16 µM | SNB-19 1.93 µM | NCI-H460 1.93 µM | SK-OV-3 3.94 µM | UO-31 1.73 µM | A549 1.92 µM | SN12C 2.1 µM | M19-MEL 1.69 µM | LXFL 529 1.85 µM | ACHN 1.87 µM | UACC-62 1.71 µM | U-251 1.76 µM | SNB-75 2.97 µM | HOP-18 2.09 µM | NCI-H522 1.59 µM | SK-MEL-5 1.72 µM | DMS-114 1.97 µM | HCC 2998 1.85 µM | RXF 631 2.14 µM | OVCAR-4 1.66 µM | SNB-78 2.61 µM | HL-60 1.19 µM | HCT-116 1.67 µM | A498 2.03 µM | SK-MEL-28 1.62 µM | UACC-257 1.93 µM | SF-295 1.85 µM | RXF 393 1.47 µM | CAKI-1 3.56 µM | OVCAR-5 1.74 µM | K562 2.54 µM | KM-20L2 2.47 µM | NCI-H226 2.05 µM | Malme-3M 2.22 µM | KM12 1.92 µM | OVCAR-8 1.64 µM | TK-10 2.14 µM | COLO 205 2.03 µM | SF-268 1.7 µM | MOLT-4 2.12 µM | HOP-62 2.12 µM | SW-620 2.16 µM | IGROV-1 2.03 µM | SK-MEL-2 1.93 µM | LOX IMVI 1.9 µM | RPMI-8226 2.25 µM | DMS-273 1.71 µM | CCRF-CEM 1.97 µM | HOP-92 1.63 µM | M14 2.08 µM | EKVX 2.07 µM

O=C(O)/C(O)=C1/C=C(c2ccccc2)c2ccccc21
inactive: DLD-1 30.1 µM | 786-0 28.4 µM | HT-29 33.1 µM | SNB-19 29.2 µM | NCI-H460 26.4 µM | SK-OV-3 30.4 µM | UO-31 19.3 µM | A549 26.2 µM | SN12C 23.8 µM | M19-MEL 22.2 µM | LXFL 529 27.5 µM | ACHN 30.1 µM | SF-539 29.9 µM | UACC-62 16.1 µM | SR 18.7 µM | U-251 18.7 µM | SNB-75 22 µM | HOP-18 22 µM | NCI-H522 16.9 µM | SK-MEL-5 17.7 µM | DMS-114 18.7 µM | HCC 2998 21.5 µM | RXF 631 28.6 µM | OVCAR-4 26.1 µM | SNB-78 31.4 µM | HL-60 19.9 µM | HCT-116 19.6 µM | A498 31.7 µM | UACC-257 20.8 µM | SF-295 18.8 µM | RXF 393 19.4 µM | CAKI-1 31.4 µM | OVCAR-5 23.6 µM | K562 26.1 µM | KM-20L2 33.7 µM | NCI-H226 21.6 µM | Malme-3M 25.5 µM | KM12 17.8 µM | OVCAR-8 23.9 µM | TK-10 31.6 µM | COLO 205 18 µM | SF-268 22 µM | MOLT-4 14.8 µM | HOP-62 25.4 µM | SW-620 20 µM | IGROV-1 22.1 µM | SK-MEL-2 16.7 µM | LOX IMVI 17.9 µM | RPMI-8226 19.4 µM | DMS-273 18.6 µM | CCRF-CEM 18.7 µM | HOP-92 18.9 µM | M14 21.1 µM
22.2 µM: HCT-15

COc1cc(NS(C)(=O)=O)ccc1NCc1c2ccccc2nc2ccccc12
active: OVCAR-4 0.0571 µM
21.7 µM: HCT-15
inactive: DLD-1 17.1 µM | NCI-H23 31 µM | 786-0 40.6 µM | HT-29 31.6 µM | OVCAR-3 43.5 µM | SNB-19 51.8 µM | NCI-H460 34.5 µM | SK-OV-3 > 100 µM | XF498 33.4 µM | UO-31 19.1 µM | A549 67 µM | SN12C 28.3 µM | M19-MEL > 10 µM | LXFL 529 29 µM | ACHN 29.4 µM | SF-539 24.3 µM | UACC-62 > 100 µM | SR 4.71 µM | U-251 76.6 µM | SNB-75 > 100 µM | NCI-H522 24.3 µM | DMS-114 17.3 µM | HCC 2998 40.6 µM | RXF 631 15 µM | HL-60 13.5 µM | HCT-116 3.45 µM | SK-MEL-28 49.7 µM | UACC-257 32.9 µM | SF-295 64 µM | RXF 393 13.9 µM | CAKI-1 21.7 µM | OVCAR-5 > 100 µM | K562 7.87 µM | KM-20L2 50.8 µM | NCI-H226 > 100 µM | Malme-3M 31.5 µM | KM12 7.66 µM | OVCAR-8 30.9 µM | TK-10 > 100 µM | COLO 205 70.1 µM | SF-268 32.1 µM | MOLT-4 3.27 µM | SW-620 26.7 µM | IGROV-1 29.4 µM | SK-MEL-2 44.4 µM | LOX IMVI 23.2 µM | RPMI-8226 22.5 µM | DMS-273 28.4 µM | CCRF-CEM 4.18 µM | HOP-92 17.3 µM | M14 52.6 µM | EKVX 42.6 µM

CC1=C(/C(C)=N/NC(=O)c2ccccc2O)C(C)C(/C(C)=N/NC(=O)c2ccccc2O)=C(C)N1
22.8 µM: HCT-15
inactive: DLD-1 27.9 µM | NCI-H23 13 µM | 786-0 18.5 µM | HT-29 42.3 µM | OVCAR-3 12.2 µM | SNB-19 30.5 µM | NCI-H460 18 µM | SK-OV-3 38.1 µM | XF498 15.1 µM | UO-31 15.5 µM | A549 21.5 µM | SN12C 45.1 µM | M19-MEL 18.7 µM | LXFL 529 23.3 µM | ACHN 16.3 µM | SF-539 20 µM | UACC-62 6.5 µM | SR 23.8 µM | U-251 28.7 µM | SNB-75 11.6 µM | NCI-H522 17.5 µM | SK-MEL-5 19.8 µM | DMS-114 16.2 µM | RXF 631 37.1 µM | OVCAR-4 11.5 µM | SNB-78 40.6 µM | HL-60 5.04 µM | HCT-116 18.5 µM | A498 27.8 µM | SK-MEL-28 21.8 µM | UACC-257 23.5 µM | RXF 393 4.73 µM | CAKI-1 28.1 µM | OVCAR-5 24.2 µM | K562 16.6 µM | KM-20L2 33.3 µM | Malme-3M 29.4 µM | KM12 31.4 µM | OVCAR-8 16.8 µM | TK-10 18.8 µM | SF-268 25.6 µM | MOLT-4 5.09 µM | HOP-62 25.1 µM | SW-620 33.6 µM | IGROV-1 10.6 µM | LOX IMVI 18.3 µM | HOP-92 28.8 µM | M14 30.2 µM | EKVX 14.7 µM
